PMC7613998, “Development of selective inhibitors of phosphatidylinositol 3-kinase C2α” (Nature Chemical Biology, 2022)

Experiments:
Experiment in all cases: biochemical
Set-up in all cases: SelectScreen Z'-LYTE purified kinase panel, per cent inhibition, mean of two points
Settings in all cases: (μM)=Km app
PAK2 (PAK65) = PAK2 (PAK65) (Homo sapiens, UniProt Q13177)
DNA-PK = target: T1, DNA-PK (Homo sapiens, UniProt P78527)
T1 construct: gene PRKDC

TYK2 = TYK2 (Homo sapiens, UniProt P29597)
AKT1 (PKB alpha) = AKT1 (PKB alpha) (Homo sapiens, UniProt P31749)
CSNK1G2 (CK1 gamma 2) = CSNK1G2 (CK1 gamma 2) (Homo sapiens, UniProt P78368)
EGFR (ErbB1) = EGFR (ErbB1) (Homo sapiens, UniProt P00533)
PIM2 = PIM2 (Homo sapiens, UniProt Q9P1W9)
ZAP70 = target: T2, ZAP70 (Homo sapiens, UniProt P43403)
T2 sequence (P43403 1-619): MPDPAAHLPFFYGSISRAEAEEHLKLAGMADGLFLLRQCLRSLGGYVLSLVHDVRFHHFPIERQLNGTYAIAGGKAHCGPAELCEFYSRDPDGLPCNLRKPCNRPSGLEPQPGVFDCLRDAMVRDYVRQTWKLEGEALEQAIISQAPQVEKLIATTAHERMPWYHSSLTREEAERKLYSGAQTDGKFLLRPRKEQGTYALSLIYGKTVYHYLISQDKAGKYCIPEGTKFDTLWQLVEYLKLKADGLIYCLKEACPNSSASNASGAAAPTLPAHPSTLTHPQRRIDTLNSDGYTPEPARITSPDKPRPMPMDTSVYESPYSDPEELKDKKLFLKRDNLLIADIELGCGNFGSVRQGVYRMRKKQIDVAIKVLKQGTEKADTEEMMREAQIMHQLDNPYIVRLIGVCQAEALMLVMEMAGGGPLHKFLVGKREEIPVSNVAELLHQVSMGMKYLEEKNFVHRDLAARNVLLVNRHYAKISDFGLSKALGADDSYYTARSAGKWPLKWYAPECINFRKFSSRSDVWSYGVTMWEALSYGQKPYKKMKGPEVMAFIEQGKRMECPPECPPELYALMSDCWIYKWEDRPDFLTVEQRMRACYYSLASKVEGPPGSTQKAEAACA

RET = RET (Homo sapiens, UniProt P07949)
FLT3 = target: T3, FLT3 (Homo sapiens, UniProt P36888)
T3 sequence (P36888 1-993): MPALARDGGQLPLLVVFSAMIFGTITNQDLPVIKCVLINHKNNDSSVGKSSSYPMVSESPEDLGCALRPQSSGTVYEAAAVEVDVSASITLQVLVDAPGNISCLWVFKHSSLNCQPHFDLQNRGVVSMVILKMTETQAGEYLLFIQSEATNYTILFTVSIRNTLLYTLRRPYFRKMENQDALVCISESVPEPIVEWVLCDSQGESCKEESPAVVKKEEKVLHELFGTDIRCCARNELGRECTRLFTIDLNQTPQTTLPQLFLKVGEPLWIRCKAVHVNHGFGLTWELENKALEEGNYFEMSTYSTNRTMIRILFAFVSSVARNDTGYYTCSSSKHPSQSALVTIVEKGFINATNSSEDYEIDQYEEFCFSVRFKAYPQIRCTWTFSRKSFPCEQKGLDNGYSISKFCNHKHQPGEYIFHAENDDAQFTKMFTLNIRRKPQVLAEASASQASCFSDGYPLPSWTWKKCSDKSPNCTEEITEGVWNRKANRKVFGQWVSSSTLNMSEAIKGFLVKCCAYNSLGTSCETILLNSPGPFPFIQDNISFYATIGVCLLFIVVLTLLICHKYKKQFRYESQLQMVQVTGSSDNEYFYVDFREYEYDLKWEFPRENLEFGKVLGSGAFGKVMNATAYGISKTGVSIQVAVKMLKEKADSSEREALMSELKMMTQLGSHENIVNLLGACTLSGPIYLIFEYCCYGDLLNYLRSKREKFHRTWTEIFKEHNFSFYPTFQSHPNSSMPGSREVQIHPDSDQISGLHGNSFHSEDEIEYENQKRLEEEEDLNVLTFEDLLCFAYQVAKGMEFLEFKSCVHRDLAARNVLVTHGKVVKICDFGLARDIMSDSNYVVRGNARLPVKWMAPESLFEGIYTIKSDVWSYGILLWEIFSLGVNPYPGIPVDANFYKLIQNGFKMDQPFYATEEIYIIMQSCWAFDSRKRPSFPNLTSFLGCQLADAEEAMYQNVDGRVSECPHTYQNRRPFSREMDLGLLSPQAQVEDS

ROCK2 = ROCK2 (Homo sapiens, UniProt O75116)
Sequence of ROCK2 (O75116 whole entry): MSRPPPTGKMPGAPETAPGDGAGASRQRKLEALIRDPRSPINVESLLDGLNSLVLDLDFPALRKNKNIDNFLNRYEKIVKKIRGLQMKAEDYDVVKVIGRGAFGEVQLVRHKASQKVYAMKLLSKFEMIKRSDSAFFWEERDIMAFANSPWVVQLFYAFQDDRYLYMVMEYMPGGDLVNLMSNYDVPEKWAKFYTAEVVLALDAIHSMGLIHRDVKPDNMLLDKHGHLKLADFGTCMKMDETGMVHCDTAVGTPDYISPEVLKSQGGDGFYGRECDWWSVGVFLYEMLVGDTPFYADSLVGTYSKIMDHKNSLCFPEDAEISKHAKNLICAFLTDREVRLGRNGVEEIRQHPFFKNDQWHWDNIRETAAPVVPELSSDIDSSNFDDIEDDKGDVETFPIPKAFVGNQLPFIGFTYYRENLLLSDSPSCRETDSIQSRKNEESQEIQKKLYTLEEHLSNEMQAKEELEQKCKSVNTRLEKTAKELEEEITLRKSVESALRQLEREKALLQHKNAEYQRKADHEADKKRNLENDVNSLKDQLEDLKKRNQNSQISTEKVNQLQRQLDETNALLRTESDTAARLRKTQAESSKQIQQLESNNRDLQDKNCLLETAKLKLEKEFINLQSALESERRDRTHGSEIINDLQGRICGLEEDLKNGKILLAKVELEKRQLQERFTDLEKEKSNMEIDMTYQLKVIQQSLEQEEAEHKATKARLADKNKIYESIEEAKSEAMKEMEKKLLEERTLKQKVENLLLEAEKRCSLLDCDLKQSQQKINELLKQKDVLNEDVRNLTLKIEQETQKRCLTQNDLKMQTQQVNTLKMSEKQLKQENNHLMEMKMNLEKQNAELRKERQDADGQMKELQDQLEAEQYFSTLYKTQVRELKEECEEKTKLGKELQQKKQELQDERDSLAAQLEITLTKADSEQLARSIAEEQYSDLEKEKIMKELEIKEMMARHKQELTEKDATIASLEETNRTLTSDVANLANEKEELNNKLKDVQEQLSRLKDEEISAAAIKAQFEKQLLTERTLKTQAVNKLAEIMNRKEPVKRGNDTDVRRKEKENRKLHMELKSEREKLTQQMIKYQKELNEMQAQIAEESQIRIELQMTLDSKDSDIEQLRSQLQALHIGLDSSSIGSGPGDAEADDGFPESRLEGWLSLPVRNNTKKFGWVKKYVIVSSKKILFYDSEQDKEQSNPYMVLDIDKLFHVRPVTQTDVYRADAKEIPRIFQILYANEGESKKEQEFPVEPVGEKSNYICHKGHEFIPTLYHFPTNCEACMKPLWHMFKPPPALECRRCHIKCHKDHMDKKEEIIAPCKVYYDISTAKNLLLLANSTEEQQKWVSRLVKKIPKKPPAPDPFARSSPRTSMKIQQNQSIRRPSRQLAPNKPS

Sequence of TYK2 (P29597 whole entry): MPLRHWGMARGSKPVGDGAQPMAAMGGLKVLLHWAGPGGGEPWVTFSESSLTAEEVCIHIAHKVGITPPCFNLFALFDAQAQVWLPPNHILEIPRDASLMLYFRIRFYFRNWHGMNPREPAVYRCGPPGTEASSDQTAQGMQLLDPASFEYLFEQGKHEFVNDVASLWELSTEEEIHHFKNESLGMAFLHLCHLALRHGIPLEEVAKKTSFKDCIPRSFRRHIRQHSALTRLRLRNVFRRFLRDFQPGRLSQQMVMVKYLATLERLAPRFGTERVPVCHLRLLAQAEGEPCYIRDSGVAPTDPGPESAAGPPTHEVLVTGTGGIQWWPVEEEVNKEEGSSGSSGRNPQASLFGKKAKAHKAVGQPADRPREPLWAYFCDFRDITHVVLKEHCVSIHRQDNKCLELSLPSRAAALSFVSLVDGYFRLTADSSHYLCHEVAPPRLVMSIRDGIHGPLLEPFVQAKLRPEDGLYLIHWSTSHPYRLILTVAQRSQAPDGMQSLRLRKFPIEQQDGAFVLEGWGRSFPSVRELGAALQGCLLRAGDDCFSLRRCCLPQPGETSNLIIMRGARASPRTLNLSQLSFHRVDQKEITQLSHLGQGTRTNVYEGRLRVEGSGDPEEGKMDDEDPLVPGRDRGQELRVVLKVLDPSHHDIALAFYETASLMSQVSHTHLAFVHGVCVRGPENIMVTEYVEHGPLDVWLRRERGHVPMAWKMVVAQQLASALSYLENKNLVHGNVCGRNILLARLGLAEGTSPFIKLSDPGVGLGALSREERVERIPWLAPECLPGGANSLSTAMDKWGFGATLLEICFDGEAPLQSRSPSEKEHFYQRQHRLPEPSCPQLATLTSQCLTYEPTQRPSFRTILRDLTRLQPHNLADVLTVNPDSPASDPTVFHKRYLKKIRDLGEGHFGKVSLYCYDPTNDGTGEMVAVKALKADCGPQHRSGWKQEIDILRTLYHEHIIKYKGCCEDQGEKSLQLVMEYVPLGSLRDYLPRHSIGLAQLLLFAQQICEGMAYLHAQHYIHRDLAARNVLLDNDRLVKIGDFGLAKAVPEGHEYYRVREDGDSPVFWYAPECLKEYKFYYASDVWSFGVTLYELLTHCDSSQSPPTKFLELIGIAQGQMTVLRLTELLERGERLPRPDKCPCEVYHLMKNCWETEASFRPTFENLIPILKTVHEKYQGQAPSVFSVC
Sequence of RET (P07949 whole entry): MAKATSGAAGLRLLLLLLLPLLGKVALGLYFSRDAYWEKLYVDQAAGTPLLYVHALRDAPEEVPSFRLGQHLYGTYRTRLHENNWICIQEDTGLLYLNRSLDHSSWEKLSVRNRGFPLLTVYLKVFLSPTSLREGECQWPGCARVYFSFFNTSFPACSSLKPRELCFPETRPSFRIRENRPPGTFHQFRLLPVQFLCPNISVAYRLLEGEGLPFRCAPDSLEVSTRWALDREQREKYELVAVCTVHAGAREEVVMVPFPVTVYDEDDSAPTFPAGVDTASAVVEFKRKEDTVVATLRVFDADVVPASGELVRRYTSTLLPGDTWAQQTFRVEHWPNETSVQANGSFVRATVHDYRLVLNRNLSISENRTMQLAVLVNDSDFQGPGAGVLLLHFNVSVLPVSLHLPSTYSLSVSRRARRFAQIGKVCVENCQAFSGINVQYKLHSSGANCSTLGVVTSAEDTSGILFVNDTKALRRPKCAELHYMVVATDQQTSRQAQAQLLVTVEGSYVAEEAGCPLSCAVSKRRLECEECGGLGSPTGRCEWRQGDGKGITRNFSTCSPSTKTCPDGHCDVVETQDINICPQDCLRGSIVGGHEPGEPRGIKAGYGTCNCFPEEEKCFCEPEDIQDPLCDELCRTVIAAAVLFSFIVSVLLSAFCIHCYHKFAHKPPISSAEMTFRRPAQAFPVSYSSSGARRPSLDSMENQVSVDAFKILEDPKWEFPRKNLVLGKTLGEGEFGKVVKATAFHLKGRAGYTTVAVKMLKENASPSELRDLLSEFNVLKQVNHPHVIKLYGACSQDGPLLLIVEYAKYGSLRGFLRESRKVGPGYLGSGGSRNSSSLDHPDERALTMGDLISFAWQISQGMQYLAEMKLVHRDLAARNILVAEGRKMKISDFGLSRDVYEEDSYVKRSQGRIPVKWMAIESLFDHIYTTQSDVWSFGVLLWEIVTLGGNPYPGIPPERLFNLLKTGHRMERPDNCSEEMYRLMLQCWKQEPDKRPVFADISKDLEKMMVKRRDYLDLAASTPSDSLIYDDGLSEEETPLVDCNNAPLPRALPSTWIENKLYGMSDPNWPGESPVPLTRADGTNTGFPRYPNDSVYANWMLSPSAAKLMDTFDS
Sequence of PIM2 (Q9P1W9 whole entry): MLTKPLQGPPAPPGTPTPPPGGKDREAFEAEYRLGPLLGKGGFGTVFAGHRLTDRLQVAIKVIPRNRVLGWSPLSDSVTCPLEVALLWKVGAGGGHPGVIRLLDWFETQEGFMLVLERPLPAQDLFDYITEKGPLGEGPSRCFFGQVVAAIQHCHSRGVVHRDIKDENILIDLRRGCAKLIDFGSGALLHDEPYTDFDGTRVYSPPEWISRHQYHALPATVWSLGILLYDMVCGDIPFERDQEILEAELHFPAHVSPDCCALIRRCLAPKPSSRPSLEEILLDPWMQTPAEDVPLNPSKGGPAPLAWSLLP
Sequence of AKT1 (PKB alpha) (P31749 whole entry): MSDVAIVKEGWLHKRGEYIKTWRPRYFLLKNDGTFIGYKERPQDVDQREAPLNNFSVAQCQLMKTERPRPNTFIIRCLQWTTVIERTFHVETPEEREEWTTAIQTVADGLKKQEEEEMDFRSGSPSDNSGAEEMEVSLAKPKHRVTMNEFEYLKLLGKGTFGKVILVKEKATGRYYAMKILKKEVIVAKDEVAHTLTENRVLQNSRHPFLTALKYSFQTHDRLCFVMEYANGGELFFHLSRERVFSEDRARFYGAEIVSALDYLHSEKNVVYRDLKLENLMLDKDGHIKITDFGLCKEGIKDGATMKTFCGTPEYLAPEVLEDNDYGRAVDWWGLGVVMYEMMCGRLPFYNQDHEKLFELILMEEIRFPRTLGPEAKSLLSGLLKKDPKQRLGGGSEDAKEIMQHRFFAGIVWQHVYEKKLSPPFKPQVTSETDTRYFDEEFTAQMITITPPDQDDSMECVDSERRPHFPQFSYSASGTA
Sequence of PAK2 (PAK65) (Q13177 whole entry): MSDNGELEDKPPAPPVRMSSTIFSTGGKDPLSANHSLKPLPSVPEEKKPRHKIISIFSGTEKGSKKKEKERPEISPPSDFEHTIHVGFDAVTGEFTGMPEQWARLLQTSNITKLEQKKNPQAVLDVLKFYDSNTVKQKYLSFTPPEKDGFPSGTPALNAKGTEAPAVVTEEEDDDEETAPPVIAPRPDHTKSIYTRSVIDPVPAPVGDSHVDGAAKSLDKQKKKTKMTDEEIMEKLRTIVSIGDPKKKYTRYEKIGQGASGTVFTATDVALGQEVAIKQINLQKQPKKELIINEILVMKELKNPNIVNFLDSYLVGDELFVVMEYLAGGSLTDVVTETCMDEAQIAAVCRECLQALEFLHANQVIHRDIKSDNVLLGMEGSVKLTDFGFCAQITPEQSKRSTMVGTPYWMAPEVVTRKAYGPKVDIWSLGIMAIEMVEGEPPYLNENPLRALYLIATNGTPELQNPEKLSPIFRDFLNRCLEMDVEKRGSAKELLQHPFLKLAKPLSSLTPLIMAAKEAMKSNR

Row | inhibition at 1 µM (PAK2 (PAK65)) [%] | inhibition at 3 µM (PAK2 (PAK65)) [%] | inhibition at 10 µM (PAK2 (PAK65)) [%] | inhibition at 1 µM (DNA-PK) [%] | inhibition at 3 µM (DNA-PK) [%] | inhibition at 10 µM (DNA-PK) [%] | inhibition at 1 µM (TYK2) [%] | inhibition at 3 µM (TYK2) [%] | inhibition at 10 µM (TYK2) [%] | inhibition at 1 µM (AKT1 (PKB alpha)) [%] | inhibition at 3 µM (AKT1 (PKB alpha)) [%] | inhibition at 10 µM (AKT1 (PKB alpha)) [%] | inhibition at 1 µM (CSNK1G2 (CK1 gamma 2)) [%] | inhibition at 3 µM (CSNK1G2 (CK1 gamma 2)) [%] | inhibition at 10 µM (CSNK1G2 (CK1 gamma 2)) [%] | inhibition at 1 µM (EGFR (ErbB1)) [%] | inhibition at 3 µM (EGFR (ErbB1)) [%] | inhibition at 10 µM (EGFR (ErbB1)) [%] | inhibition at 1 µM (PIM2) [%] | inhibition at 3 µM (PIM2) [%] | Structure (SMILES) | other results
1 | 2.87 | -3.37 | 3.3 | 13.4 | 14.1 | 12.5 | -4.9 | -7.09 | -1.29 | 1.93 | 0.317 | 0.625 | 0.334 | 6.89 | 8.12 | 2.09 | 1.39 | -0.671 | -5.29 | -3.77 | O=C(CSc1nc2nccnc2c(=O)n1CCc1ccccc1)Nc1nccs1 [compound 1, PITCOIN1] | inhibition at 10 µM (PIM2): -7.86%; inhibition at 1 µM (ZAP70): 13.7%; inhibition at 3 µM (ZAP70): 11.6%; inhibition at 10 µM (ZAP70): 9.43%; inhibition at 1 µM (RET): 4.11%; inhibition at 3 µM (RET): 3.69%; inhibition at 10 µM (RET): 4.56%; inhibition at 1 µM (FLT3): 9.16%; inhibition at 3 µM (FLT3): 8.82%; inhibition at 10 µM (FLT3): 8.33%; inhibition at 1 µM (ROCK2): 2.33%; inhibition at 3 µM (ROCK2): 1.58%; inhibition at 10 µM (ROCK2): 5.34%
2 | 4.79 | 5.93 | 0.538 | 11 | 23.7 | 23.3 | 3.78 | -2.18 | 4.5 | -1.18 | 7.49 | 3.66 | 7.85 | 15.6 | 13.7 | -2.95 | 6.63 | 0.555 | -0.888 | -5.98 | CS(=O)(=O)Nc1cccc(-c2csc(NC(=O)CSc3nc4nccnc4c(=O)n3CCc3ccccc3)n2)c1 [compound 3, PITCOIN3] | inhibition at 10 µM (PIM2): -4.75%; inhibition at 1 µM (ZAP70): 17.4%; inhibition at 3 µM (ZAP70): 12.6%; inhibition at 10 µM (ZAP70): 14.5%; inhibition at 1 µM (RET): 7.87%; inhibition at 3 µM (RET): 5.35%; inhibition at 10 µM (RET): 5%; inhibition at 1 µM (FLT3): 12.3%; inhibition at 3 µM (FLT3): 11%; inhibition at 10 µM (FLT3): 12.7%; inhibition at 1 µM (ROCK2): 7.17%; inhibition at 3 µM (ROCK2): -3.73%; inhibition at 10 µM (ROCK2): 2.1%
